Tests used:
Dopamine D3 = Dopamine D3 (Homo sapiens, UniProt P35462); experiment: Receptor binding, Dopamine D3
Method: (§1) Receptor-ligand binding studies were performed as known to one skilled in the art. Compounds evaluated were LMP, the parent compound, the NDM LMP metabolite of LMP, and the sulfoxide metabolite of LMP. These studies verified receptor binding and affinity by the parent compound, as well as identified other potential receptors for the parent compound and its metabolites, and identified and verified receptors and receptor affinity for the metabolites.
(§2) Dopamine receptor affinity included binding to D1, D2, D3, D4, and D5 receptors. Serotonin receptor affinity included binding to 5-HT1A, 5-HT2A, 5-HT2B, 5-HT2, 5-HT5A, 5-HT6, and 5-HT7 receptors. Alpha adrenergic receptor affinity included binding to α1A, α1B, α1C, α2A, α2B, and α2C receptors. Muscarinic receptor affinity included binding to M1, M2, M3, M4, and M5 receptors. Binding to the histamine H1 receptor, the calcium ion channel receptor, and the sodium ion channel receptor were also evaluated. In each of the tables, the following abbreviations are used: LMP indicates the parent compound levomepromazine. NDM LMP indicates the N-desmethyl (N-desmethyl) metabolite. Sulfoxide indicates the sulfoxide metabolite. […] Ki (the inhibition constants of binding) indicate binding affinity.

Dopamine D5 = Dopamine D5 (Homo sapiens, UniProt P21918); experiment: Receptor binding, Dopamine D5
Method: as §1, §2

Serotonin 5-HT1A = target: T1, Serotonin 5-HT1A (Homo sapiens, UniProt P08908); experiment: Receptor binding, Serotonin 5-HT1A
T1 sequence (P08908 1-422): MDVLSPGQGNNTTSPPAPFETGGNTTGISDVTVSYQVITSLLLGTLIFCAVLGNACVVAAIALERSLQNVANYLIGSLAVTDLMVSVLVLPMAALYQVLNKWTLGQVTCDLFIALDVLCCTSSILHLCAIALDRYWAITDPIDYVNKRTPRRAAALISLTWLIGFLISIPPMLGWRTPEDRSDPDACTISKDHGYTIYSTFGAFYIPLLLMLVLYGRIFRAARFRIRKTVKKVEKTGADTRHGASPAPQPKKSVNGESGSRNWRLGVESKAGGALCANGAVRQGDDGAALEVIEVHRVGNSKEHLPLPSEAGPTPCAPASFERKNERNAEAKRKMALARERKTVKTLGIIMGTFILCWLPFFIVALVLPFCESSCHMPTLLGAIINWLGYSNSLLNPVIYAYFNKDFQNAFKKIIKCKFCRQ
Method: as §1, §2

Serotonin 5-HT2A = Serotonin 5-HT2A (Homo sapiens, UniProt P28223); experiment: Receptor binding, Serotonin 5-HT2A
Method: as §1, §2

Serotonin 5-HT2C = target: T2, Serotonin 5-HT2C (Homo sapiens, UniProt P28335); experiment: Receptor binding, Serotonin 5-HT2C
T2 sequence (P28335 33-458): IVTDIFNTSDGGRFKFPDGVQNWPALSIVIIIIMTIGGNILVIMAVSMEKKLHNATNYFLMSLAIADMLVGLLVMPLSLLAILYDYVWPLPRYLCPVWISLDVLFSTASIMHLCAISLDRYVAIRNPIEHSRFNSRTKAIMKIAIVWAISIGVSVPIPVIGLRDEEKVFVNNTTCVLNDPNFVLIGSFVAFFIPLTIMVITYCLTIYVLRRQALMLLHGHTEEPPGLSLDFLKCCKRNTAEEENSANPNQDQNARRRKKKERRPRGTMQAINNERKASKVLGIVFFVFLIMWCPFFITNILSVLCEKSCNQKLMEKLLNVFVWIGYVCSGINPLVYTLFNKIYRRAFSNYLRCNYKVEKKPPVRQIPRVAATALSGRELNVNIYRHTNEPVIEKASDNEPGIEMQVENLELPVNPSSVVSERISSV
Method: as §1, §2

Serotonin 5-HT7 = Serotonin 5-HT7 (Homo sapiens, UniProt P34969); experiment: Receptor binding, Serotonin 5-HT7
Method: as §1, §2

Adrenergic α1B = target: T3, Adrenergic α1B (Homo sapiens, UniProt P35368); experiment: Receptor binding, Adrenergic α1B
T3 sequence (P35368 1-520): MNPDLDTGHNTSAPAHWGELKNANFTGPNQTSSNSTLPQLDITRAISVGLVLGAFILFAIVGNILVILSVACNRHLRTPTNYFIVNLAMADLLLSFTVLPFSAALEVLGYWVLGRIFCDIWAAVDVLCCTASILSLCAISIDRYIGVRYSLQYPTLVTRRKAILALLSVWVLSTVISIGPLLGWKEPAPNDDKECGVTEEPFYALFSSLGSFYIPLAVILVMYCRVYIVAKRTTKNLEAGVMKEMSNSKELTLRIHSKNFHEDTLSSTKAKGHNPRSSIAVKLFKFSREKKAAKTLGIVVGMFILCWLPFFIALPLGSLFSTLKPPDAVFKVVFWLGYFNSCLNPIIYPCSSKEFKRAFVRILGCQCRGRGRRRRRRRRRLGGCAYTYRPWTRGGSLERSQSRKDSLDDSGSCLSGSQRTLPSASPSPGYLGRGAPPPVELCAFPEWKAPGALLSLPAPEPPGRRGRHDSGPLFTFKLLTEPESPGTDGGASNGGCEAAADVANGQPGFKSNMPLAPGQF
Method: as §1, §2

Muscarinic M3 = Muscarinic M3 (Homo sapiens, UniProt P20309); experiment: Receptor binding, Muscarinic M3
Method: as §1, §2

Muscarinic M4 = target: T4, Muscarinic M4 (Homo sapiens, UniProt P08173); experiment: Receptor binding, Muscarinic M4
T4 sequence (P08173 1-479): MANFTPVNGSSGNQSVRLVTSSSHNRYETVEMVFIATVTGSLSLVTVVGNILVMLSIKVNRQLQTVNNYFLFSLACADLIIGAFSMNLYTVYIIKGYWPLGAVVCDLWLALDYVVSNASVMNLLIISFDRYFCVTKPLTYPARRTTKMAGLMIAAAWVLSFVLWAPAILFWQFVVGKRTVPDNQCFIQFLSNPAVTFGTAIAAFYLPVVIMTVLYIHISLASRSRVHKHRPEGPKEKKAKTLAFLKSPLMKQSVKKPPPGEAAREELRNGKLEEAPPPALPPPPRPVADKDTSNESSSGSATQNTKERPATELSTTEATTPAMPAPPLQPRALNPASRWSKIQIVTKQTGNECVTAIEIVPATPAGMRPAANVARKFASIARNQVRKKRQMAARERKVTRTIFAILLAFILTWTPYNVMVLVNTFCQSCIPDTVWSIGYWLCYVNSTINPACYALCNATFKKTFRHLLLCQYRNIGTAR
Method: as §1, §2

Calcium Channel = experiment: Receptor binding, Calcium Channel
Method: as §1, §2

α1 adrenergic receptors = experiment: Receptor affinity summary, α1 adrenergic receptors; format: binding; conditions: for binding to all α1 adrenergic receptors (in words): α1A, α1B, and α1C; for Relative Affinity: α1-Adrenergic
Method: as §1, §2

muscarinic receptors = experiment: Receptor affinity summary, muscarinic receptors; format: binding; conditions: for binding affinity to muscarinic receptors (in words): all receptors; for Relative Affinity: Muscarinic
Method: as §1, §2

Chain of Dopamine D3 (P35462 whole entry): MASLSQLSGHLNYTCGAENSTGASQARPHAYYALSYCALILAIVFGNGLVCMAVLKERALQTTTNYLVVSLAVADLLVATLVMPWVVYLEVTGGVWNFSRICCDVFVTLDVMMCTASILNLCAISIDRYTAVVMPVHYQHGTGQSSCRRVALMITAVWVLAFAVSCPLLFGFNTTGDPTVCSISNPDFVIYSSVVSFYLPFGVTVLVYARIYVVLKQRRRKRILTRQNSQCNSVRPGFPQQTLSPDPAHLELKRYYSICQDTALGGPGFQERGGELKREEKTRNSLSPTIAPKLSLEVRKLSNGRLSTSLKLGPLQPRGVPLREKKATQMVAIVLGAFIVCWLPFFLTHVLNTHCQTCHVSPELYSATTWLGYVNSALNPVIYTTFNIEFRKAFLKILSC
Chain of Serotonin 5-HT7 (P34969 whole entry): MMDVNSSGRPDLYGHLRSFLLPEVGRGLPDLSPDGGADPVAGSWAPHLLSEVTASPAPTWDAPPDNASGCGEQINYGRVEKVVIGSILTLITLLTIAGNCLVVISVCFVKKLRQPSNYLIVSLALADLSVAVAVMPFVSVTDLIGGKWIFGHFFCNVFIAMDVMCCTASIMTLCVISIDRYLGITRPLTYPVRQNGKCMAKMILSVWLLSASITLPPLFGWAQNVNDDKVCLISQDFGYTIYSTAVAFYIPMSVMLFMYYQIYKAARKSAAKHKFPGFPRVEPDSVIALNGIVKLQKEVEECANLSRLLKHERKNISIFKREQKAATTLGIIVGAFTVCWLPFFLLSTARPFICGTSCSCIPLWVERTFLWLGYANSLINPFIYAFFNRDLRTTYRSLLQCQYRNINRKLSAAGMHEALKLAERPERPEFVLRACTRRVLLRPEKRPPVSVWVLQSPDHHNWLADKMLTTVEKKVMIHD
Chain of Serotonin 5-HT2A (P28223 whole entry): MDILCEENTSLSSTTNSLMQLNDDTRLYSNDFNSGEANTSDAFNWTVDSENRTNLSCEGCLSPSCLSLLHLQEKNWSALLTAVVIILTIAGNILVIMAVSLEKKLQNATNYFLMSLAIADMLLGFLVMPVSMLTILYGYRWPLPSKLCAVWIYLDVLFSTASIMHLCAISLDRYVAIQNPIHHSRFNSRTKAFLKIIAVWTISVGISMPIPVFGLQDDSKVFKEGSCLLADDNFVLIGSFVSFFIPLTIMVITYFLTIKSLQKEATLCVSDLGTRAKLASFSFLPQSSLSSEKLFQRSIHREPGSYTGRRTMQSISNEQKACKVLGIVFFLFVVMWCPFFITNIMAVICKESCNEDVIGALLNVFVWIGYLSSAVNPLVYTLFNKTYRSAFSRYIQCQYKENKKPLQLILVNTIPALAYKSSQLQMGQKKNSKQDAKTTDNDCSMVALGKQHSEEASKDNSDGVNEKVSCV
Chain of Muscarinic M3 (P20309 whole entry): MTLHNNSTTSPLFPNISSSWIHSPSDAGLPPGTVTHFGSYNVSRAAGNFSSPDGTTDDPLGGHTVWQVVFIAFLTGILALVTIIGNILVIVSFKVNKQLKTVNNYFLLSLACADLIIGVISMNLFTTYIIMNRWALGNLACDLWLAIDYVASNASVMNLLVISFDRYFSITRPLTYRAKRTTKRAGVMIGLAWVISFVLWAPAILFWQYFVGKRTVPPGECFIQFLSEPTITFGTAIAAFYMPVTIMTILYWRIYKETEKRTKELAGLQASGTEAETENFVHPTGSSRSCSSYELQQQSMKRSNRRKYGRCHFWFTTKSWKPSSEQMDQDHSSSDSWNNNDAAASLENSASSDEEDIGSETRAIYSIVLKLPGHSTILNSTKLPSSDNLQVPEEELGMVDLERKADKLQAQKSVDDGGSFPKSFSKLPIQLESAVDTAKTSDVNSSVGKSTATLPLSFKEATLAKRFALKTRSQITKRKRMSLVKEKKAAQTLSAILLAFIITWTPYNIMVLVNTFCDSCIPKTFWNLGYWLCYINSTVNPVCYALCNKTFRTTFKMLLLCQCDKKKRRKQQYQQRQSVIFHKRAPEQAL
Chain of Dopamine D5 (P21918 whole entry): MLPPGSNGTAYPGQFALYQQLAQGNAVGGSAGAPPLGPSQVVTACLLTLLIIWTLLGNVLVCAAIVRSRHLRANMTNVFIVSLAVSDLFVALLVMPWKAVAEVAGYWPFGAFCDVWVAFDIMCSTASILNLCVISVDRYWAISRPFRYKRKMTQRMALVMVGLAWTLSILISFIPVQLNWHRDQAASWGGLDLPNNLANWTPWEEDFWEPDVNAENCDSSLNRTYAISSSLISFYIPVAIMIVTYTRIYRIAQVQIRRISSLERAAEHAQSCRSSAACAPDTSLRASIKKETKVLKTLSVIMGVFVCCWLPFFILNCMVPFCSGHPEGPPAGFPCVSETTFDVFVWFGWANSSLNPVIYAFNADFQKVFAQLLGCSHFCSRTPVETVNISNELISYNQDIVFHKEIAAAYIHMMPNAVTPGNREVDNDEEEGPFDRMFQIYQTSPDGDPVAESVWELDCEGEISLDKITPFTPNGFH

Compound	Ki (Dopamine D3) [nM]	Ki (Dopamine D5) [nM]	Ki (Serotonin 5-HT1A) [nM]	Ki (Serotonin 5-HT2A) [nM]	Ki (Serotonin 5-HT2C) [nM]	Ki (Serotonin 5-HT7) [nM]	Ki (Adrenergic α1B) [nM]	Ki (Muscarinic M3) [nM]	Ki (Muscarinic M4) [nM]	Ki (Calcium Channel) [nM]	binding to all α1 adrenergic receptors (in words) (α1 adrenergic receptors)	binding affinity to muscarinic receptors (in words) (muscarinic receptors)	Relative Affinity (Calcium Channel)	Relative Affinity (α1 adrenergic receptors)	Relative Affinity (muscarinic receptors)
COc1ccc2c(c1)N(C[C@H](C)CN(C)C)c1ccccc1S2 [LMP, Levomepromazine]	4	180	827	< 4	8	24	2	39	34	407	high binding	moderate-to-high affinities	–	–	–
CNCC(C)CN1c2ccccc2Sc2ccc(OC)cc21 (stereo not drawn) [NDM LMP, R(+) 2-methoxy-10-2-methyl-3-monomethylaminopropyl phenothiazine]	5	243	641	< 4	9	18	2	47	88	49	high binding	moderate-to-high affinities	NDM LMP > LMP > sulfoxide	LMP = NDM LMP ≧ sulfoxide	LMP = NDM LMP > sulfoxide
COc1ccc2c(c1)N(C[C@H](C)CN(C)C)c1ccccc1[S+]2[O-] (stereo partly drawn) [Sulfoxide, levomepromazine sulfoxide]	> 10000	> 10000	> 10000	410	1980	> 10000	80	551	318	9090	high binding	low affinity	NDM LMP > LMP > sulfoxide	LMP = NDM LMP ≧ sulfoxide	LMP = NDM LMP > sulfoxide

Reference: patent publication US20050080076A1 (Xanodyne Pharmacal, Inc., priority 2003, published 2005)
